Experimental data from patent US10954269B2, “Anti-inflammatory tripeptides” (Dr. August Wolff Gmbh & Co. KG Arzneimittel, priority 2013, dated 2021).
[ ]: non-standard residue; d: D form. Aib = CC(C)(N)C(=O)O

Test system: primary murine T-cells
Assay: Cytokine secretion on protein level in activated primary murine T-cells (13-plex FACS / Luminex, supernatant)
Assay type: cell-based, C57BL/6 mice
Conditions: for IFN-γ* cytokine concentration / IL-2* cytokine concentration: 1:10 dilution of the supernatants
In short: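 T-cells from secondary lymphatic organs of naïve C57BL/6 mice, stimulated with PMA/Ionomycin or IFN-γ; supernatant cytokines measured by 13-plex FACS 48 h and 72 h after stimulation. In another run, PMA/Ionomycin-stimulated cells received compounds at 10^−7, 10^−9 and 10^−11 M, with IFN-γ, IL-17 and IL-10 measured by Luminex.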

[1] = primary murine T-cells stimulated with IFN-γ, 10^−9M
[2] = primary murine T-cells stimulated with IFN-γ, substance 10^−9M
[3] = primary murine T-cells stimulated with PBS, 10^−9M
[4] = primary murine T-cells stimulated with PBS, substance 10^−9M
[5] = primary murine T-cells stimulated with PMA/Ionomycin, 10^−9M
[6] = primary murine T-cells stimulated with PMA/Ionomycin, substance 10^−9M

Substance: alpha-melanocyte-stimulating hormone [α-MSH, reference compound]
- IL-1 cytokine concentration [1]: 14.89 pg/mL
- IL-2 cytokine concentration [1]: 0 pg/mL
- IL-4 cytokine concentration [1]: 0 pg/mL
- IL-5 cytokine concentration [1]: 0 pg/mL
- IL-6 cytokine concentration [1]: 0 pg/mL
- IL-10 cytokine concentration [1]: 0 pg/mL
- IL-13 cytokine concentration [1]: 0 pg/mL
- IL-17 cytokine concentration [1]: 0 pg/mL
- IL-21 cytokine concentration [1]: 0 pg/mL
- IL-22 cytokine concentration [1]: 0 pg/mL
- IL-27 cytokine concentration [1]: 0 pg/mL
- TNF-α cytokine concentration [1]: 0 pg/mL
- IL-1 cytokine concentration [2]: 88.22 pg/mL
- IL-2 cytokine concentration [2]: 96.1 pg/mL
- IL-4 cytokine concentration [2]: 20.56 pg/mL
- IL-5 cytokine concentration [2]: 220.39 pg/mL
- IL-6 cytokine concentration [2]: 133.9 pg/mL
- IL-10 cytokine concentration [2]: 1117.07 pg/mL
- IL-13 cytokine concentration [2]: 0 pg/mL
- IL-17 cytokine concentration [2]: 55.11 pg/mL
- IL-21 cytokine concentration [2]: 0 pg/mL
- IL-22 cytokine concentration [2]: 50.6 pg/mL
- IL-27 cytokine concentration [2]: 104.04 pg/mL
- TNF-α cytokine concentration [2]: 36.8 pg/mL
- IFN-γ cytokine concentration [3]: 0 pg/mL
- IL-1 cytokine concentration [3]: 0 pg/mL
- IL-2 cytokine concentration [3]: 0 pg/mL
- IL-4 cytokine concentration [3]: 0 pg/mL
- IL-5 cytokine concentration [3]: 0 pg/mL
- IL-6 cytokine concentration [3]: 16.44 pg/mL
- IL-10 cytokine concentration [3]: 55.47 pg/mL
- IL-13 cytokine concentration [3]: 0 pg/mL
- IL-17 cytokine concentration [3]: 0 pg/mL
- IL-21 cytokine concentration [3]: 0 pg/mL
- IL-22 cytokine concentration [3]: 0 pg/mL
- IL-27 cytokine concentration [3]: 0 pg/mL
- TNF-α cytokine concentration [3]: 0 pg/mL
- IFN-γ cytokine concentration [4]: 0 pg/mL
- IL-1 cytokine concentration [4]: 58.5 pg/mL
- IL-2 cytokine concentration [4]: 105.75 pg/mL
- IL-4 cytokine concentration [4]: 62.93 pg/mL
- IL-5 cytokine concentration [4]: 281.14 pg/mL
- IL-6 cytokine concentration [4]: 96.88 pg/mL
- IL-10 cytokine concentration [4]: 1157.87 pg/mL
- IL-13 cytokine concentration [4]: 0 pg/mL
- IL-17 cytokine concentration [4]: 0 pg/mL
- IL-21 cytokine concentration [4]: 0 pg/mL
- IL-22 cytokine concentration [4]: 72.14 pg/mL
- IL-27 cytokine concentration [4]: 77.41 pg/mL
- TNF-α cytokine concentration [4]: 106.1 pg/mL
- IL-1 cytokine concentration [5]: 28.92 pg/mL
- IL-4 cytokine concentration [5]: 0 pg/mL
- IL-5 cytokine concentration [5]: 262.76 pg/mL
- IL-6 cytokine concentration [5]: 114.47 pg/mL
- IL-10 cytokine concentration [5]: 276.08 pg/mL
- IL-13 cytokine concentration [5]: 3966.69 pg/mL
- IL-17 cytokine concentration [5]: 311.07 pg/mL
- IL-21 cytokine concentration [5]: 0 pg/mL
- IL-22 cytokine concentration [5]: 356.41 pg/mL
- IL-27 cytokine concentration [5]: 0 pg/mL
- TNF-α cytokine concentration [5]: 535.51 pg/mL
- IFN-γ* cytokine concentration [5]: 0 pg/mL
- IL-2* cytokine concentration [5]: 849.44 pg/mL
- IFN-γ cytokine concentration [6]: 1458.12 pg/mL
- IL-1 cytokine concentration [6]: 217.32 pg/mL
- IL-2 cytokine concentration [6]: 163.19 pg/mL
- IL-4 cytokine concentration [6]: 91.65 pg/mL
- IL-5 cytokine concentration [6]: 215.44 pg/mL
- IL-6 cytokine concentration [6]: 174.22 pg/mL
- IL-10 cytokine concentration [6]: 1250.21 pg/mL
- IL-13 cytokine concentration [6]: 0 pg/mL
- IL-17 cytokine concentration [6]: 29.47 pg/mL
- IL-21 cytokine concentration [6]: 0 pg/mL
- IL-22 cytokine concentration [6]: 143.37 pg/mL
- IL-27 cytokine concentration [6]: 104.52 pg/mL
- TNF-α cytokine concentration [6]: 77.76 pg/mL

Substance: H-Phe-Pro-[Aib]-OH [Example 13]
- IL-1 cytokine concentration [2]: 82.68 pg/mL
- IL-2 cytokine concentration [2]: 237.05 pg/mL
- IL-4 cytokine concentration [2]: 0 pg/mL
- IL-5 cytokine concentration [2]: 342.32 pg/mL
- IL-6 cytokine concentration [2]: 220.06 pg/mL
- IL-10 cytokine concentration [2]: 968.94 pg/mL
- IL-13 cytokine concentration [2]: 0 pg/mL
- IL-17 cytokine concentration [2]: 26.88 pg/mL
- IL-21 cytokine concentration [2]: 0 pg/mL
- IL-22 cytokine concentration [2]: 334.1 pg/mL
- IL-27 cytokine concentration [2]: 151.6 pg/mL
- TNF-α cytokine concentration [2]: 52.48 pg/mL
- IFN-γ cytokine concentration [4]: 5058.59 pg/mL
- IL-1 cytokine concentration [4]: 64.4 pg/mL
- IL-2 cytokine concentration [4]: 173.84 pg/mL
- IL-4 cytokine concentration [4]: 25.55 pg/mL
- IL-5 cytokine concentration [4]: 401.21 pg/mL
- IL-6 cytokine concentration [4]: 168.6 pg/mL
- IL-10 cytokine concentration [4]: 829.52 pg/mL
- IL-13 cytokine concentration [4]: 0 pg/mL
- IL-17 cytokine concentration [4]: 0 pg/mL
- IL-21 cytokine concentration [4]: 0 pg/mL
- IL-22 cytokine concentration [4]: 0 pg/mL
- IL-27 cytokine concentration [4]: 302.6 pg/mL
- TNF-α cytokine concentration [4]: 62.22 pg/mL
- IFN-γ cytokine concentration [6]: 8109.91 pg/mL
- IL-1 cytokine concentration [6]: 329.99 pg/mL
- IL-2 cytokine concentration [6]: 260.49 pg/mL
- IL-4 cytokine concentration [6]: 135.41 pg/mL
- IL-5 cytokine concentration [6]: 452.71 pg/mL
- IL-6 cytokine concentration [6]: 404.54 pg/mL
- IL-10 cytokine concentration [6]: 1267.4 pg/mL
- IL-13 cytokine concentration [6]: 0 pg/mL
- IL-17 cytokine concentration [6]: 0 pg/mL
- IL-21 cytokine concentration [6]: 432.64 pg/mL
- IL-22 cytokine concentration [6]: 111.64 pg/mL
- IL-27 cytokine concentration [6]: 387.94 pg/mL
- TNF-α cytokine concentration [6]: 69.4 pg/mL

Substance: H-Lys-[dP]-Thr-OH [K(D)PT, reference compound]
- IL-1 cytokine concentration [1]: 26.6 pg/mL
- IL-2 cytokine concentration [1]: 0 pg/mL
- IL-4 cytokine concentration [1]: 0 pg/mL
- IL-5 cytokine concentration [1]: 0 pg/mL
- IL-6 cytokine concentration [1]: 0 pg/mL
- IL-10 cytokine concentration [1]: 0 pg/mL
- IL-13 cytokine concentration [1]: 0 pg/mL
- IL-17 cytokine concentration [1]: 0 pg/mL
- IL-21 cytokine concentration [1]: 0 pg/mL
- IL-22 cytokine concentration [1]: 0 pg/mL
- IL-27 cytokine concentration [1]: 209.12 pg/mL
- TNF-α cytokine concentration [1]: 0 pg/mL
- IL-1 cytokine concentration [2]: 93.77 pg/mL
- IL-2 cytokine concentration [2]: 98.22 pg/mL
- IL-4 cytokine concentration [2]: 85.32 pg/mL
- IL-5 cytokine concentration [2]: 271.81 pg/mL
- IL-6 cytokine concentration [2]: 144.97 pg/mL
- IL-10 cytokine concentration [2]: 1061 pg/mL
- IL-13 cytokine concentration [2]: 0 pg/mL
- IL-17 cytokine concentration [2]: 88.84 pg/mL
- IL-21 cytokine concentration [2]: 0 pg/mL
- IL-22 cytokine concentration [2]: 48.13 pg/mL
- IL-27 cytokine concentration [2]: 0 pg/mL
- TNF-α cytokine concentration [2]: 34.84 pg/mL
- IFN-γ cytokine concentration [3]: 0 pg/mL
- IL-1 cytokine concentration [3]: 0 pg/mL
- IL-2 cytokine concentration [3]: 0 pg/mL
- IL-4 cytokine concentration [3]: 0 pg/mL
- IL-5 cytokine concentration [3]: 0 pg/mL
- IL-6 cytokine concentration [3]: 27.81 pg/mL
- IL-10 cytokine concentration [3]: 64.53 pg/mL
- IL-13 cytokine concentration [3]: 0 pg/mL
- IL-17 cytokine concentration [3]: 16.26 pg/mL
- IL-21 cytokine concentration [3]: 0 pg/mL
- IL-22 cytokine concentration [3]: 0 pg/mL
- IL-27 cytokine concentration [3]: 25.93 pg/mL
- TNF-α cytokine concentration [3]: 0 pg/mL
- IFN-γ cytokine concentration [4]: 0 pg/mL
- IL-1 cytokine concentration [4]: 60.41 pg/mL
- IL-2 cytokine concentration [4]: 124.13 pg/mL
- IL-4 cytokine concentration [4]: 71.69 pg/mL
- IL-5 cytokine concentration [4]: 373.93 pg/mL
- IL-6 cytokine concentration [4]: 124 pg/mL
- IL-10 cytokine concentration [4]: 1039.39 pg/mL
- IL-13 cytokine concentration [4]: 0 pg/mL
- IL-17 cytokine concentration [4]: 0 pg/mL
- IL-21 cytokine concentration [4]: 0 pg/mL
- IL-22 cytokine concentration [4]: 78.32 pg/mL
- IL-27 cytokine concentration [4]: 87.48 pg/mL
- TNF-α cytokine concentration [4]: 77.74 pg/mL
- IL-1 cytokine concentration [5]: 30.27 pg/mL
- IL-4 cytokine concentration [5]: 71.79 pg/mL
- IL-5 cytokine concentration [5]: 280.87 pg/mL
- IL-6 cytokine concentration [5]: 140.97 pg/mL
- IL-10 cytokine concentration [5]: 188.56 pg/mL
- IL-13 cytokine concentration [5]: 4314.15 pg/mL
- IL-17 cytokine concentration [5]: 423.67 pg/mL
- IL-21 cytokine concentration [5]: 0 pg/mL
- IL-22 cytokine concentration [5]: 333.4 pg/mL
- IL-27 cytokine concentration [5]: 99.7 pg/mL
- TNF-α cytokine concentration [5]: 515.54 pg/mL
- IFN-γ* cytokine concentration [5]: 712.81 pg/mL
- IL-2* cytokine concentration [5]: 1288.92 pg/mL
- IFN-γ cytokine concentration [6]: 2117.29 pg/mL
- IL-1 cytokine concentration [6]: 175.59 pg/mL
- IL-2 cytokine concentration [6]: 152.69 pg/mL
- IL-4 cytokine concentration [6]: 72.07 pg/mL
- IL-5 cytokine concentration [6]: 238.08 pg/mL
- IL-6 cytokine concentration [6]: 201.87 pg/mL
- IL-10 cytokine concentration [6]: 1133.29 pg/mL
- IL-13 cytokine concentration [6]: 0 pg/mL
- IL-17 cytokine concentration [6]: 70.93 pg/mL
- IL-21 cytokine concentration [6]: 0 pg/mL
- IL-22 cytokine concentration [6]: 90.3 pg/mL
- IL-27 cytokine concentration [6]: 126.71 pg/mL
- TNF-α cytokine concentration [6]: 49.63 pg/mL
